Patent publication US9376396B2, “Acylaminocycloalkyl compounds suitable for treating disorders that respond to modulation of dopamine D3 receptor” (AbbVie Deutschland GmbH & Co. KG, priority 2012, dated 2016)

Experiments:
[1] = Determination of the microsomal half-life / microsomal clearance, human; assay type: in vitro ADME; details: human liver microsomes, 0.5 μM test substance, 0.25 mg microsomal protein/ml, NADPH, 37° C.
Protocol: (§1) The metabolic stability of the compounds of the invention was determined in the following assay.
(§2) The test substances were incubated in a concentration of 0.5 μM as follows:
(§3) 0.5 μM test substance are preincubated together with liver microsomes from different species (from rat, human or other species) (0.25 mg of microsomal protein/ml) in 0.05 M potassium phosphate buffer of pH 7.4 in microtiter plates at 37° C. for 5 min. The reaction is started by adding NADPH (1 mg/mL). After 0, 5, 10, 15, 20 and 30 min, 50 μl aliquots are removed, and the reaction is immediately stopped and cooled with the same volume of acetonitrile. The samples are frozen until analyzed. The remaining concentration of undegraded test substance is determined by MSMS. The half-life (T½) is determined from the gradient of the signal of test substance/unit time plot, it being possible to calculate the half-life of the test substance, assuming first order kinetics, from the decrease in the concentration of the compound with time. The microsomal clearance (mCl) is calculated from mCl=ln 2/T½/(content of microsomal protein in mg/ml)×1000 [ml/min/mg] (modified from references: Di, The Society for Biomoleculur Screening, 2003, 453-462; Obach, DMD, 1999 vol 27. N 11, 1350-1359).

[2] = Determination of the microsomal half-life / microsomal clearance, rat; assay type: in vitro ADME; details: rat liver microsomes, 0.5 μM test substance, 0.25 mg microsomal protein/ml, NADPH, 37° C.
Protocol: as §1, §2, §3

[3] = target: T1, human dopamine D2L receptors (long isoform) (Homo sapiens, UniProt P14416); test: Receptor binding study, dopamine D2L receptor ([125I]iodospiperone displacement), selectivity vs D3; details: selectivity ratio, HEK-293 membranes
T1 construct: expressed in transfected cells; host or cells: HEK-293
T1 sequence (P14416 whole entry, canonical isoform): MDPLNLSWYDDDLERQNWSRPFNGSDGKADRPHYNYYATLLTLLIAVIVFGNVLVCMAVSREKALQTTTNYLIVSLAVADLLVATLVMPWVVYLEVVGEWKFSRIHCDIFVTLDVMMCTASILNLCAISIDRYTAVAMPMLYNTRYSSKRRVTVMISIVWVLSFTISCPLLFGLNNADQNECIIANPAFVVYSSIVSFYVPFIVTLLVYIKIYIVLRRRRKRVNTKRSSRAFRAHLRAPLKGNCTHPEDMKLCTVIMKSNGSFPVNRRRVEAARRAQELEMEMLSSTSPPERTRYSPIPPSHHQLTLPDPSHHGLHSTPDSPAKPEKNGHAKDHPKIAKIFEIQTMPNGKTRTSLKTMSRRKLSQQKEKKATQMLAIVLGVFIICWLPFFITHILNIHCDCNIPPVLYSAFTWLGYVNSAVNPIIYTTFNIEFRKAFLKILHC
Protocol: (§4) The substance to be tested was either dissolved in methanol/Chremophor® (BASF SE) or in dimethyl sulfoxide and then diluted with water to the desired concentration.
(§5) Each assay mixture was run in triplicate. • The incubation buffer contained 50 mM tris, 120 mM NaCl, 5 mM KCl, 2 mM CaCl2, 2 mM MgCl2 and 0.1% bovine serum albumin, 10 μM quinolone and 0.1% ascorbic acid (prepared fresh daily). […] Each assay mixture was run in triplicate. • The incubation buffer contained 50 mM tris, 120 mM NaCl, 5 mM KCl, 2 mM CaCl2, 2 mM MgCl2 and 0.1% bovine serum albumin. The buffer was adjusted to pH 7.4 with HCl. c) Measurement and Analysis: • After having been incubated at 25° C. for 60 minutes, the assay mixtures were filtered through a Whatman GF/B glass fiber filter under vacuum using a cell collecting device. The filters were transferred to scintillation viols using a filter transfer system. After 4 ml of Ultima Gold® (Packard) have been added, the samples were shaken for one hour and the radioactivity was then counted in a Beta-Counter (Packard, Tricarb 2000 or 2200CA).

[4] = target: T2, human dopamine D3 receptors (Homo sapiens, UniProt P35462); test: Receptor binding study, dopamine D3 receptor ([125I]-iodosulpride displacement); details: membranes of HEK-293 cells, 0.1 nM [125I]-iodosulpride, 25° C., 60 minutes
T2 construct: expressed in transfected cells; host or cells: HEK-293
T2 sequence (P35462 whole entry): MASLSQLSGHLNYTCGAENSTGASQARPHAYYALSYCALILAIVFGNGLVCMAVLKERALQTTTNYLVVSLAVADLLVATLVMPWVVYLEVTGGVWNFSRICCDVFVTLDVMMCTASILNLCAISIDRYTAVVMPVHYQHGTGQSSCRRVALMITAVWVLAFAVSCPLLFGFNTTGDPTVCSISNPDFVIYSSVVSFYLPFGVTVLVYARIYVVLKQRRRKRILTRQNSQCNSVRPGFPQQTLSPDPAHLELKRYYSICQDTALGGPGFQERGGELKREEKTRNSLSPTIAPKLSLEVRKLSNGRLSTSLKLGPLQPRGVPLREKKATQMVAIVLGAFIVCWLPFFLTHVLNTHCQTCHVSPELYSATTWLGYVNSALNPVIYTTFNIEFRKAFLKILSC
Protocol: as §4, §5

Structure (SMILES)	Human mCl [1]	Rat mCl [2]	D2/D3 (Ki (D2L)/Ki (D3)) [3]	Ki [4]
COCCc1cc(N2CCN(CC[C@H]3C[C@@H](NC(C)=O)C3)CC2)nc(C(C)(C)C)n1.O=C(O)C(F)(F)F [Compound 4a, cis-N-[3-(2-{4-[2-tert-Butyl-6-(2-methoxy-ethyl)-pyrimidin-4-yl]-piperazin-1-yl}-ethyl)-cyclobutyl]-acetamide trifluoroacetate]	+ (+: 20-120 μl min^−1 mg^−1)	+ (+: 20-120 μl min^−1 mg^−1)		
COCCc1cc(N2CCN(CC[C@H]3C[C@H](NC(C)=O)C3)CC2)nc(C(C)(C)C)n1.O=C(O)C(F)(F)F [Compound 4b, trans-N-[3-(2-{4-[2-tert-Butyl-6-(2-methoxy-ethyl)-pyrimidin-4-yl]-piperazin-1-yl}-ethyl)-cyclobutyl]-acetamide trifluoroacetate]	+ (+: 20-120 μl min^−1 mg^−1)	+ (+: 20-120 μl min^−1 mg^−1)	+++ (+++>50)	< 50 nM
COCCc1cc(N2CCN(CCC3CC(NC=O)C3)CC2)nc(C(C)(C)C)n1.O=C(O)C(F)(F)F (stereo not drawn) [Compound 12, N-[3-(2-{4-[2-tert-Butyl-6-(2-methoxy-ethyl)-pyrimidin-4-yl]-piperazin-1-yl}-ethyl)-cyclobutyl]-formamide trifluoroacetate]	+ (+: 20-120 μl min^−1 mg^−1)	+ (+: 20-120 μl min^−1 mg^−1)	++ (++>20)	< 10 nM
COCCc1cc(N2CCN(CC[C@H]3C[C@@H](NC=O)C3)CC2)nc(C(C)(C)C)n1 [Compound 17, N-[cis-3-[2-[4-[2-tert-butyl-6-(2-methoxyethyl)pyrimidin-4-yl]piperazin-1-yl]ethyl]cyclobutyl]formamide]	+ (+: 20-120 μl min^−1 mg^−1)	+ (+: 20-120 μl min^−1 mg^−1)	++ (++>20)	< 50 nM
COCCc1cc(N2CCN(CC[C@H]3C[C@H](NC=O)C3)CC2)nc(C(C)(C)C)n1 [Compound 18, N-[trans-3-[2-[4-[2-tert-butyl-6-(2-methoxyethyl)pyrimidin-4-yl]piperazin-1-yl]ethyl]cyclobutyl]formamide]	+ (+: 20-120 μl min^−1 mg^−1)	∘ (∘: >120 μl min^−1 mg^−1)	++ (++>20)	< 50 nM
COCCc1cc(N2CCN(CC[C@H]3CC[C@H](NC=O)CC3)C[C@H]2C)nc(C(C)(C)C)n1 [Compound 19, trans-N-[4-[2-[(3R)-4-[2-tert-butyl-6-(2-methoxyethyl)pyrimidin-4-yl]-3-methyl-piperazin-1-yl]ethyl]cyclohexyl]formamide]	+ (+: 20-120 μl min^−1 mg^−1)		+++ (+++>50)	< 50 nM
COCc1cc(N2CCN(CC[C@H]3CC[C@H](NC=O)CC3)CC2)nc(C(C)(C)C)n1 [Compound 21, trans-N-[4-[2-[4-[2-tert-butyl-6-(methoxymethyl)pyrimidin-4-yl]piperazin-1-yl]ethyl]cyclohexyl]formamide]	+ (+: 20-120 μl min^−1 mg^−1)			
CC(=O)N[C@H]1CC[C@H](CCN2CCN(c3cc(CO)nc(C(C)(C)C)n3)CC2)CC1 [Compound 22, trans-N-[4-[2-[4-[2-tert-butyl-6-(hydroxymethyl)pyrimidin-4-yl]piperazin-1-yl]ethyl]cyclohexyl]acetamide]	+ (+: 20-120 μl min^−1 mg^−1)	+ (+: 20-120 μl min^−1 mg^−1)	+++ (+++>50)	< 50 nM

Second part, the compound after the results:

Human mCl [1]	Rat mCl [2]	D2/D3 (Ki (D2L)/Ki (D3)) [3]	Ki [4]	Structure (SMILES)
+ (+: 20-120 μl min^−1 mg^−1)	+ (+: 20-120 μl min^−1 mg^−1)			COCCc1cc(N2CCN(CC[C@H]3CC[C@@H](NC(C)=O)CC3)CC2)nc(C(C)(C)C)n1 [Compound 3, cis-N-[4-(2-{4-[2-tert-Butyl-6-(2-methoxy-ethyl)-pyrimidin-4-yl]-piperazin-1-yl}-ethyl)-cyclohexyl]-acetamide]
+ (+: 20-120 μl min^−1 mg^−1)	+ (+: 20-120 μl min^−1 mg^−1)	+++ (+++>50)	< 50 nM	COCCc1cc(N2CCN(CC[C@H]3CC[C@H](NC(C)=O)CC3)[C@H](C)C2)nc(C(C)(C)C)n1 [Compound 5, trans-N-[4-(2-{(2R)-4-[2-tert-Butyl-6-(2-methoxy-ethyl)-pyrimidin-4-yl]-2-methyl-piperazin-1-yl}-ethyl)-cyclohexyl]-acetamide]
+ (+: 20-120 μl min^−1 mg^−1)	+ (+: 20-120 μl min^−1 mg^−1)	+++ (+++>50)	< 10 nM	COCCc1cc(N2CCN(CC[C@H]3CC[C@H](NC(C)=O)CC3)C[C@@H]2C)nc(C(C)(C)C)n1 [Compound 8, trans-N-[4-(2-{(3S)-4-[2-tert-Butyl-6-(2-methoxy-ethyl)-pyrimidin-4-yl]-3-methyl-piperazin-1-yl}-ethyl)-cyclohexyl]-acetamide]
		++ (++>20)	< 10 nM	CC(=O)N[C@H]1CC[C@@H](CCN2CCN(c3cc(CCOC(F)(F)F)nc(C(C)(C)C)n3)CC2)CC1 [Compound 10a, cis N-[4-(2-{4-[2-tert-Butyl-6-(2-trifluoromethoxy-ethyl)-pyrimidin-4-yl]-piperazin-1-yl}-ethyl)-cyclohexyl]-acetamide]
+ (+: 20-120 μl min^−1 mg^−1)	∘ (∘: >120 μl min^−1 mg^−1)	+ (+>10)	< 10 nM	CC(=O)N[C@H]1CC[C@H](CCN2CCN(c3cc(CCOC(F)(F)F)nc(C(C)(C)C)n3)CC2)CC1 [Compound 10b, trans N-[4-(2-{4-[2-tert-Butyl-6-(2-trifluoromethoxy-ethyl)-pyrimidin-4-yl]-piperazin-1-yl}-ethyl)-cyclohexyl]-acetamide]
+ (+: 20-120 μl min^−1 mg^−1)	+ (+: 20-120 μl min^−1 mg^−1)	+++ (+++>50)	< 50 nM	COCCc1cc(N2CCN(CC[C@@H]3CC[C@@H](NC(C)=O)C3)CC2)nc(C(C)(C)C)n1 [Compound 14, trans-N-[(1R,3S)-3-[2-[4-[2-tert-butyl-6-(2-methoxyethyl)pyrimidin-4-yl]piperazin-1-yl]ethyl]cyclopentyl]acetamide]
+ (+: 20-120 μl min^−1 mg^−1)	+ (+: 20-120 μl min^−1 mg^−1)	+++ (+++>50)	< 10 nM	COCCc1cc(N2CCN(CC[C@H]3CC[C@H](NC(C)=O)C3)CC2)nc(C(C)(C)C)n1 [Compound 15, trans-N-[(1S,3R)-3-[2-[4-[2-tert-butyl-6-(2-methoxyethyl)pyrimidin-4-yl]piperazin-1-yl]ethyl]cyclopentyl]acetamide]
+ (+: 20-120 μl min^−1 mg^−1)	+ (+: 20-120 μl min^−1 mg^−1)	+++ (+++>50)	< 50 nM	COCCc1cc(N2CCN(CC[C@@H]3CC[C@H](NC(C)=O)C3)CC2)nc(C(C)(C)C)n1 [Compound 16, cis-N-[(1S,3S)-3-[2-[4-[2-tert-butyl-6-(2-methoxyethyl)pyrimidin-4-yl]piperazin-1-yl]ethyl]cyclopentyl]acetamide]
+ (+: 20-120 μl min^−1 mg^−1)	+ (+: 20-120 μl min^−1 mg^−1)	+++ (+++>50)	< 10 nM	COCCc1cc(N2CCN(CC[C@H]3CC[C@H](NC=O)CC3)C[C@@H]2C)nc(C(C)(C)C)n1 [Compound 20, trans-N-[4-[2-[(3S)-4-[2-tert-butyl-6-(2-methoxyethyl)pyrimidin-4-yl]-3-methyl-piperazin-1-yl]ethyl]cyclohexyl]formamide]
+ (+: 20-120 μl min^−1 mg^−1)	+ (+: 20-120 μl min^−1 mg^−1)			CC(=O)N[C@H]1CC[C@H](CCN2CCN(c3cc(CCO)nc(C(C)(C)C)n3)C[C@H]2C)CC1 [Compound 26, trans-N-[4-[2-[(2R)-4-[2-tert-butyl-6-(2-hydroxyethyl)pyrimidin-4-yl]-2-methyl-piperazin-1-yl]ethyl]cyclohexyl]acetamide]
